In ChEMBL document CHEMBL4665695, “Antifungal Phenols from Woodfordia uniflora Collected in Oman” (2020):
Converted amounts (≈) assume the structure as drawn.

Experiments:
Type in all cases: functional
Candida albicans = assay: Antifungal activity against Candida albicans SC5314 by CLSI protocol-based broth serial dilution method
Cryptococcus neoformans [1] = assay: Antifungal activity against Cryptococcus neoformans H99 by CLSI protocol-based broth serial dilution method
Cryptococcus neoformans [2] = assay: Antifungal activity against Cryptococcus neoformans JEC21 by CLSI protocol-based broth serial dilution method

Compound	MIC (Candida albicans) [µM]	MIC (Cryptococcus neoformans [1]) [µM]	MIC (Cryptococcus neoformans [2]) [µM]
CC(=O)[C@@H](CC(=O)O)[C@H]1Oc2cc(O)cc(O)c2C[C@@H]1O	> 169	169 (≈ 50 µg/mL)	169 (≈ 50 µg/mL)
O=C(Oc1cc(O)c2c(c1)O[C@H](c1ccc(O)c(O)c1)[C@@H](O)C2)c1cc(O)c(O)c(O)c1	56.6 (≈ 25 µg/mL)	1.8 (≈ 0.796 µg/mL)	–
O=C(OC[C@H]1O[C@@H](Oc2c(-c3ccc(O)c(O)c3)oc3cc(O)cc(O)c3c2=O)[C@H](O)[C@@H](O)[C@@H]1O)c1cc(O)c(O)c(O)c1	> 325	2.6 (≈ 1.6 µg/mL)	–
C[C@]12OC(=O)C[C@H]1[C@H]1Oc3cc(O)cc(O)c3C[C@H]1O2	> 180	180 (≈ 50 µg/mL)	180 (≈ 50 µg/mL)
O=C(Oc1cc(O)c2c(c1)O[C@H](c1ccc(O)c(O)c1)CC2)c1cc(O)c(O)c(O)c1	14.8 (≈ 6.31 µg/mL)	1.9 (≈ 0.81 µg/mL)	3.8 (≈ 1.62 µg/mL)
O=C(Oc1cc(O)c2c(c1)O[C@@H](c1ccc(O)c(O)c1)CC2)c1cc(O)c(O)c(O)c1	14.8 (≈ 6.31 µg/mL)	1.9 (≈ 0.81 µg/mL)	3.8 (≈ 1.62 µg/mL)
COc1cc(O)c2c(=O)c(O)c(-c3ccc(O[C@@H]4O[C@H](CO)[C@@H](O)[C@H](O)[C@H]4O)c(O)c3)oc2c1	> 105	52.3 (≈ 25 µg/mL)	105 (≈ 50 µg/mL)
O=C(Oc1ccc([C@H]2Oc3cc(O)cc(O)c3C[C@@H]2O)cc1O)c1cc(O)c(O)c(O)c1	56.6 (≈ 25 µg/mL)	113 (≈ 50 µg/mL)	113 (≈ 50 µg/mL)
O=c1c(O[C@@H]2O[C@H](CO)[C@@H](O)[C@H](O)[C@H]2O)c(-c2ccc(O)c(O)c2)oc2cc(O)cc(O)c12 [ISOQUERCETIN]	> 108	53.9 (≈ 25 µg/mL)	108 (≈ 50 µg/mL)
Oc1cc(O)c2c(c1)O[C@H](c1ccc(O)c(O)c1)[C@@H](O)[C@@H]2c1c(O)cc(O)c2c1O[C@H](c1ccc(O)c(O)c1)[C@@H](O)C2	> 86.5	5.4 (≈ 3.12 µg/mL)	5.4 (≈ 3.12 µg/mL)
O=C(OC[C@H]1O[C@@H](Oc2c(-c3ccc(O)cc3)oc3cc(O)cc(O)c3c2=O)[C@H](O)[C@@H](O)[C@@H]1O)c1cc(O)c(O)c(O)c1	> 83.3	20.8 (≈ 12.5 µg/mL)	83.3 (≈ 50 µg/mL)
CCOC(=O)c1cc(O)c(O)c(O)c1 [ETHYLGALLATE]	> 252	126 (≈ 25 µg/mL)	252 (≈ 50 µg/mL)
COc1cc(O)c2c(=O)c(O[C@@H]3O[C@@H](C)[C@H](O)[C@@H](O)[C@H]3O)c(-c3ccc(O)c(O)c3)oc2c1	> 433	27 (≈ 12.5 µg/mL)	–
O=C(O[C@H]1[C@H](c2c(O)cc(O)c3c2O[C@H](c2ccc(O)c(O)c2)[C@@H](O)C3)c2c(O)cc(O)cc2O[C@@H]1c1ccc(O)c(O)c1)c1cc(O)c(O)c(O)c1	17.1 (≈ 12.5 µg/mL)	4.2 (≈ 3.07 µg/mL)	8.5 (≈ 6.21 µg/mL)
O=C(Oc1cc([C@H]2Oc3cc(O)cc(O)c3C[C@@H]2O)ccc1O)c1cc(O)c(O)c(O)c1	> 113	113 (≈ 50 µg/mL)	113 (≈ 50 µg/mL)
COc1c(O)cc(C(=O)O)cc1O	> 272	67.9 (≈ 12.5 µg/mL)	272 (≈ 50 µg/mL)
O=C(O)c1cc(O)c(O)c(O)c1 [GALLIC ACID]	> 294	147 (≈ 25 µg/mL)	147 (≈ 25 µg/mL)
OC(Cn1cncn1)(Cn1cncn1)c1ccc(F)cc1F [FLUCONAZOLE]	1.6 (≈ 0.49 µg/mL)	25.5 (≈ 7.81 µg/mL)	6.5 (≈ 1.99 µg/mL)
COc1cc(O)c2c(=O)c(O[C@@H]3O[C@@H](C)[C@H](O)[C@@H](O)[C@H]3O)c(-c3ccc(O)cc3)oc2c1	> 112	56 (≈ 25 µg/mL)	56 (≈ 25 µg/mL)
COc1cc(O)c2c(=O)c(O[C@@H]3O[C@H](COC(=O)c4cc(O)c(O)c(O)c4)[C@@H](O)[C@H](O)[C@H]3O)c(-c3ccc(O)c(O)c3)oc2c1	> 317	10 (≈ 6.31 µg/mL)	–
Oc1cc(O)c2c(c1)O[C@H](c1ccc(O)c(O)c1)[C@@H](O)C2 [CIANIDANOL]	> 690	10.7 (≈ 3.11 µg/mL)	–
